Entries after “also recorded” stand apart in the source; their conditions may differ.
Columns and labels:
isolated rat islets [1] = test: Insulin secretion from isolated rat islets; assay type: cell-based; conditions: isolated rat islets; for insulin secretion induced by 16.8 mM glucose: pretreated
Description: FIG. 4a-b: The effect of CRFR2 antagonist on insulin secretion in isolated rat islets. (a) The effect of astressin2B (Ast2-B) on insulin secretion in response to glucose in isolated rat islets. […] The asterisk indicates a statistically significant difference between results from the control versus Ast2-B. (b) Isolated rat isles were pre-treated with anti-Ucn 3 IgG or control IgG followed by addition of indicated concentration of glucose. Y-axis indicates insulin secretion from the treated islets. The double asterisks indicate a statistically significant difference between the indicated treatments. […]
To assess the effect of CRFR2 antagonism on islet cell function secretion of insulin from isolated rat islets was studied. […] Thus, activation of CRFR2 by endogenous ligands is involved in insulin secretion induced by high levels of glucose.
In order to determine the role of Ucn 3 in glucose induced insulin secretion, isolated rat islets were pretreated with an anti-Ucn 3 IgG prior to glucose treatment.

CRFR2 = biological target: T1, CRFR2 (Homo sapiens, UniProt Q13324); conditions: Rivier et al. 2002; cited from earlier work
T1 sequence (Q13324 1-411): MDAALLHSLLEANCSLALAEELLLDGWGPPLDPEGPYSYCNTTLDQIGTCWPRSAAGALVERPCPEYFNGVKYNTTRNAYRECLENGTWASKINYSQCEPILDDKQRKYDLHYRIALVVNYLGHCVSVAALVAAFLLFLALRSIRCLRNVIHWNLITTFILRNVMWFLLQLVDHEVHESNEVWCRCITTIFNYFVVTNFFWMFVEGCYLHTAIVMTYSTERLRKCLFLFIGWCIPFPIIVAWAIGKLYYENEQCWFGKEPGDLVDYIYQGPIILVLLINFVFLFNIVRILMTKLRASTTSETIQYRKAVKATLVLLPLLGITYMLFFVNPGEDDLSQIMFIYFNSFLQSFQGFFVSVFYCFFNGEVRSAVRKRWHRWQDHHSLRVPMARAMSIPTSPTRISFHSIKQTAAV

male rats = test: Glucose induced insulin release in vivo in male rats; parameters: species or system rat
Description: FIG. 9a-c: The effects of CRFR2 signaling on insulin secretion. […] Plasma insulin (b) and glucose (c) levels in male rats treated with vehicle or Ast2-B (0.09-9 nmol/kg). *, P<0.05 vs. vehicle.
In order to determine whether blocking of CRFR2 function also modulates glucose induced insulin release in vivo, various doses of Ast2-B (0.09-9 nmol/kg) or vehicle were injected intravenously into male rats through a jugular vein cannula 20 min before injection of a glucose (2.8 mmol/kg) bolus.

wild type mice = test: Glucose tolerance test (GTT) in wild type mice; assay type: in vivo, mouse; conditions: fasted male wild type mice; 30 μg/kg IP 20 min prior to glucose 2 g/kg
Description: FIG. 1a-f: Metabolic phenotype of Ucn 2 null mice. […] The ability of the Ucn 2 null mice and wild type littermates to handle a glucose load was assessed using a standard glucose tolerance test (see example 1). Fasted male mice were injected intraperitoneally (IP) with glucose (2 g/kg body weight) and blood glucose levels were measured before and at 15, 30, 60, 90 and 120 min following glucose injection. […] Fasted male Ucn 2 null mice were injected IP with saline or with 0.1 μg/kg body weight Ucn 2, 20 min prior to glucose injection (2 g/kg body weight) and blood glucose levels were measured before and at 15, 30, 60 and 90 min following glucose injection. […] Fasted male wild type mice were injected IP with saline or with astressin2B (30 μg/kg body weight), 20 min prior to glucose injection (2 g/kg body weight), and blood glucose levels were measured before and at 15, 30, 60 and 90 min following glucose injection. (d) The enhanced glucose tolerance in the Ucn 2 null mice is not due to increased insulin secretion. Fasted male mice were injected with glucose (3 g/kg body weight, IP) and blood samples were collected at 2, 5, 15 and 30 min following glucose injection and insulin was measured by radioimmunoassay. […] Fasted male mice were injected with insulin (0.75 U/kg body weight, IP) and blood glucose levels were measured before and at 15, 30, 60 and 90 min following insulin injection. […]

isolated rat islets [2] = test: Insulin secretion from isolated rat islets; assay type: cell-based; conditions: exendin-4 10 nM + 8.4 mM glucose; listed as Ast2-B
[3] = Rivier et al., 2003; cited from earlier work

Substance: astressin2B: CRFR2 selective antagonist; modified sauvagine polypeptide (SEQ ID NO:10), Rivier et al., 2002
- insulin secretion induced by 16.8 mM glucose (isolated rat islets [1]): has CRFR2 antagonist activity
- insulin secretion induced by 16.8 mM glucose (isolated rat islets [1]; listed as Ast2-B): significantly attenuated; also recorded: attenuated by Ast2-B in a dose-dependent manner
- insulin secretion induced by 16.8 mM glucose (isolated rat islets [1]; listed as astressin-2B): attenuates 16.8 mM glucose-induced insulin secretion in a dose-dependent manner
- insulin release induced by 2.8 mM glucose (isolated rat islets [1]; 2.8 mM glucose): did not affect
- insulin secretion induced by 8.4 mM glucose (isolated rat islets [1]): did not significantly modify
- insulin secretion induced by 8.4 mM glucose (isolated rat islets [1]; listed as Ast2-B): did not affect
- insulin release induced by 10 mM glucose (isolated rat islets [1]; 10 mM glucose): did not affect
- time of administration needed for CRFR2 antagonist activity (CRFR2): active when administered concurrently with the CRFR2 agonist
- glucose-induced insulin secretion, highest dose compared to 0.9 nmol/kg (male rats; 9 nmol/kg intravenously): slightly less effective
- plasma glucose levels (male rats; 0.09-9 nmol/kg intravenously 20 min before glucose 2.8 mmol/kg bolus): mirrored the results of insulin
- glucose-induced insulin secretion (plasma insulin) (male rats; 0.09-9 nmol/kg intravenously 20 min before glucose 2.8 mmol/kg bolus, listed as Ast2-B): attenuated glucose-induced insulin secretion in a dose dependent manner; also recorded: attenuates glucose induced insulin secretion
- glucose tolerance test profile (wild type mice): has CRFR2 antagonist activity; also recorded: mirrors that of Ucn 2 null mice; also recorded: mimics the Ucn 2 mutant mice glucose tolerance test profile
- Exendin-4 stimulated insulin release (isolated rat islets [2]): greatly attenuated; also recorded: the effect was attenuated
- crossing of the blood brain barrier [3]: unlikely to cross the blood brain barrier

Source: patent US7815905B2, “Methods of increasing insulin sensitivity or decreasing insulin secretion by administering corticotropin releasing factor receptor-2 inhibitors” (Research Development Foundation, priority 2006, dated 2010)
